For test [1], the system named is B. cereus. Description: MIC assay, antibiotic with or without DSF-family molecules. Particulars: for MIC of Gentamicin, Mean: gentamicin alone (MeOH control, no DSF-family molecule). The format is cell-based, Bacillus cereus. The method, then: (§1) Minimum inhibitory concentration (MIC) was determined according to the 2003 guidelines of Clinical and Laboratory Standards Institute (CLSI) using 96-well microtiter plates. The two-fold dilution series of antibacterial agents or antibiotics were prepared with distilled water, methanol, or dimethyl sulfoxide (DMSO). Overnight cultures of bacteria were inoculated at an OD600 of 0.025 in Luria-Bertani (LB) broth supplemented with the respective antibiotic in the absence or presence of DSF-family molecules (Table 1). One hundred microliters of inoculated culture were grown in each well at 37° C. with shaking at 150 rpm for 24 hours. MIC was defined as the lowest concentration of antibiotic in which bacterial growth in the well was not measureable by determination of the turbidity at 600 nm.

Test [2] has as its system B. cereus. The test can be described thus: Bacterial growth analysis (Bioscreen-C). The format is cell-based, Bacillus cereus. The settings on record: final concentration of 50 μM, no antibiotic. As to the method:
(§2) Overnight bacterial cultures grown in LB broth was inoculated in the same medium to an OD600 of 0.025; the medium was supplemented with a respective antibiotic and DSF-family signals were added in a final concentration of 50 μM or otherwise indicated. Three hundred microliters of inoculated culture were grown in each well at 37° C. in a low intensity shaking model using the Bioscreen-C Automated Growth Curves Analysis System (OY Growth Curves AB Ltd, Finland).

In the next test the test system is B. thuringiensis. Description: MIC assay, antibiotic with or without DSF. The format is cell-based, Bacillus thuringiensis. The settings on record: DSF 50 μM. As to the method:
as §1

A further test has as its system N. subflava. The test can be described thus: MIC assay, antibiotic with or without DSF. In kind it is cell-based, Neisseria subflava. Particulars: DSF 50 μM. As to the method: as §1
The test system of the next test is S. aureus. Description: MIC assay, antibiotic with or without DSF. In kind it is cell-based, Staphylococcus aureus. The settings on record: DSF 50 μM. The method, then: as §1
A further test has as its system M. smegmatis. The test can be described thus: MIC assay, antibiotic with or without DSF. The format is cell-based, Mycobacterium smegmatis. The settings on record: DSF 50 μM. The method, then:
as §1

In test [3] the test system is P. aeruginosa strain PAO1. Description: Bacterial growth analysis (Bioscreen-C). The format is cell-based, Pseudomonas aeruginosa. The method, then:
as §2
P. aeruginosa is a major source of opportunistic infections in both immunocompromised individuals and cystic fibrosis patients (Bodey et al., 1983; Richards et al., 2000). It appeared to be less responsive to DSF than other tested bacterial pathogen in our preliminary MIC assay. We therefore used the Bioscreen-C Automated Growth Curves Analysis System to determine the synergistic effect of DSF with antibiotics. Gentamicin and kanamycin were added to the culture of P. aeruginosa strain PAO1 at a final concentration of 2 nM and 0.2 μM, respectively, in the absence and presence of 50 μM DSF.

Where [4] appears, read: 50 μM DSF-family molecule vs MeOH control.

Turning to `CCCCC/C=C\C(=O)O` [Compound C8], in the test on B. cereus [1] (setting [4]), the “Fold Change of MIC of Ampicillin” value was determined as 0, the “Fold Change of MIC of Kanamycin” value is 2, the “Fold Change of MIC of Rifampicin” value stood at 2 and the “Fold change of MIC of Gentamicin” value is 0.

For `CCCCCCC/C=C\C(=O)O` [Compound C10], in the test on B. cereus [1] (setting [4]), the “Fold Change of MIC of Ampicillin” value is recorded as 0, the “Fold Change of MIC of Kanamycin” value stood at 4, the “Fold Change of MIC of Rifampicin” value came to 2.6 and the “Fold change of MIC of Gentamicin” value is listed as 2.

For `CCCCCCCC/C=C\C(=O)O` [Compound C11], in the test with B. cereus [1] (setting [4]), the “Fold Change of MIC of Kanamycin” value was found to be 16, the “Fold Change of MIC of Rifampicin” value is 4 and the “Fold change of MIC of Gentamicin” value was determined as 16.

With `CCCCCCCCC/C=C\C(=O)O` [Compound C12], in the test with B. cereus [1] (setting [4]), the “Fold Change of MIC of Ampicillin” value is 0, the “Fold Change of MIC of Kanamycin” value is recorded as 4, the “Fold Change of MIC of Rifampicin” value was determined as 2.6 and the “Fold change of MIC of Gentamicin” value amounted to 8. In addition, the “effect on bacterial growth rate” value with B. cereus [2] was “did not affect the bacterial growth rate”.

Consider `CCCCCCCCCC/C=C\C(=O)O` [Compound C13], for which the “Fold Change of MIC of Kanamycin” value in the test with B. cereus [1] (5 μM C13 vs MeOH) was 2; in the test on B. cereus [1] (10 μM C13 vs MeOH), 2; in the test with B. cereus [1] (20 μM C13 vs MeOH) it was 8; with B. cereus [1] (30 μM C13 vs MeOH), 8; with B. cereus [1] (40 μM C13 vs MeOH), 16; in the test on B. cereus [1] (50 μM C13 vs MeOH) it was 16. The “Fold Change of MIC of Kanamycin” value in the test with B. cereus [1] (setting [4]) came out at 16. Further, the “Fold change of MIC of Gentamicin” value in the test on B. cereus [1] (5 μM C13 vs MeOH) was 0; in the test on B. cereus [1] (10 μM C13 vs MeOH) it was 2; in the test on B. cereus [1] (20 μM C13 vs MeOH), 4; in the test on B. cereus [1] (30 μM C13 vs MeOH), 8; in the test with B. cereus [1] (40 μM C13 vs MeOH) it was 21.3; in the test with B. cereus [1] (50 μM C13 vs MeOH), 32. For the same molecule, the “Fold change of MIC of Gentamicin” value with B. cereus [1] (setting [4]) turned out to be 32. Moreover, the “Fold Change of MIC of Ampicillin” value in the test with B. cereus [1] (setting [4]) amounted to 0. In addition, the “Fold Change of MIC of Rifampicin” value with B. cereus [1] (setting [4]) is 2.6. Moreover, in the test on B. cereus [2], the “effect on bacterial growth rate” value is listed as “did not affect the bacterial growth rate”.

Consider `CCCCCCCCCCC/C=C\C(=O)O` [Compound C14], for which, in the test on B. cereus [1] (setting [4]), the “Fold Change of MIC of Ampicillin” value is listed as 0, the “Fold Change of MIC of Kanamycin” value came to 32, the “Fold Change of MIC of Rifampicin” value stood at 2 and the “Fold change of MIC of Gentamicin” value came to 32.

Take `CCCCCCCCCCCC/C=C\C(=O)O` [Compound C15]: the “drug adjuvant with ampicillin” value in the test on B. cereus [1] (50 μM DSF-family molecule) is listed as “best drug adjuvant with ampicillin”. In addition, in the test with B. cereus [1] (setting [4]), the “Fold Change of MIC of Kanamycin” value was 32, the “Fold Change of MIC of Rifampicin” value is reported as 4 and the “Fold change of MIC of Gentamicin” value was determined as 128.

For the molecule `CCCCCCCCCCCC(=O)O` [Compound S12], in the test with B. cereus [1] (setting [4]), the “Fold Change of MIC of Ampicillin” value is reported as 0, the “Fold Change of MIC of Kanamycin” value worked out at 8, the “Fold Change of MIC of Rifampicin” value stood at 2 and the “Fold change of MIC of Gentamicin” value is recorded as 4.

In the case of `CCCCC/C=C/C(=O)O` [Compound T8], in the test on B. cereus [1] (setting [4]), the “Fold Change of MIC of Ampicillin” value was 0, the “Fold Change of MIC of Kanamycin” value came out at 2, the “Fold Change of MIC of Rifampicin” value stood at 0 and the “Fold change of MIC of Gentamicin” value was found to be 0.

As for `CCCCCCC/C=C/C(=O)O` [Compound T10], in the test with B. cereus [1] (setting [4]), the “Fold Change of MIC of Ampicillin” value is 0, the “Fold Change of MIC of Kanamycin” value was 4, the “Fold Change of MIC of Rifampicin” value was 2 and the “Fold change of MIC of Gentamicin” value came out at 2.

As for `CCCCCCCC/C=C/C(=O)O` [Compound T11], in the test on B. cereus [1] (setting [4]), the “Fold Change of MIC of Kanamycin” value came to 8, the “Fold Change of MIC of Rifampicin” value was found to be 2.6 and the “Fold change of MIC of Gentamicin” value was 16.

As to `CCCCCCCCC/C=C/C(=O)O` [Compound T12], in the test with B. cereus [1] (setting [4]), the “Fold Change of MIC of Ampicillin” value is 0, the “Fold Change of MIC of Kanamycin” value was 16, the “Fold Change of MIC of Rifampicin” value stood at 1.3 and the “Fold change of MIC of Gentamicin” value amounted to 21.3.

`CCCCCCCCCC/C=C/C(=O)O` [Compound T13]: in the test on B. cereus [1] (setting [4]), the “Fold Change of MIC of Ampicillin” value was 0, the “Fold Change of MIC of Kanamycin” value came to 5.3, the “Fold Change of MIC of Rifampicin” value was determined as 2 and the “Fold change of MIC of Gentamicin” value is 8.

As to `CCCCCCCCCCC/C=C/C(=O)O` [Compound T14], the “synergistic activity with kanamycin” value with B. cereus [1] (50 μM DSF-family molecule) was “strongest synergistic activity”. Further, in the test with B. cereus [1] (setting [4]), the “Fold Change of MIC of Kanamycin” value came out at 64, the “Fold Change of MIC of Rifampicin” value came out at 1.3 and the “Fold change of MIC of Gentamicin” value worked out at 128.

Turning to `CCCCCCCCCCCC/C=C/C(=O)O` [Compound T15], in the test with B. cereus [1] (setting [4]), the “Fold Change of MIC of Ampicillin” value amounted to 0, the “Fold Change of MIC of Kanamycin” value was determined as 2, the “Fold Change of MIC of Rifampicin” value is reported as 2 and the “Fold change of MIC of Gentamicin” value is listed as 0.

As for `CC(C)CCCCCCC/C=C\C(=O)O` [DSF, cis 11-methyl-2-dodecenoic acid], in the test with B. cereus [1] (5 μM DSF vs MeOH), the “Fold Change of MIC of Kanamycin” value amounted to 1.3 and the “Fold change of MIC of Gentamicin” value is recorded as 2. Moreover, in the test on B. cereus [1] (10 μM DSF vs MeOH), the “Fold Change of MIC of Kanamycin” value came to 2 and the “Fold change of MIC of Gentamicin” value was 2. In the test on B. cereus [1] (20 μM DSF vs MeOH), the “Fold Change of MIC of Kanamycin” value was 2 and the “Fold change of MIC of Gentamicin” value is reported as 5.3. In the test on B. cereus [1] (30 μM DSF vs MeOH), the “Fold Change of MIC of Kanamycin” value was 5.3 and the “Fold change of MIC of Gentamicin” value is 8. In the test on B. cereus [1] (40 μM DSF vs MeOH), the “Fold Change of MIC of Kanamycin” value is listed as 5.3 and the “Fold change of MIC of Gentamicin” value is given as 16. In addition, in the test on B. cereus [1] (50 μM DSF vs MeOH), the “Fold Change of MIC of Kanamycin” value is recorded as 16 and the “Fold change of MIC of Gentamicin” value amounted to 16. Besides, in the test on B. cereus [1] (setting [4]), the “Fold Change of MIC of Ampicillin” value was determined as 0, the “Fold Change of MIC of Kanamycin” value is given as 16, the “Fold Change of MIC of Rifampicin” value was determined as 2 and the “Fold change of MIC of Gentamicin” value is listed as 16. In the test with B. thuringiensis, the “decrease of MIC of ampicillin” value amounted to 75%, the “decrease of MIC of gentamicin” value stood at 93.75%, the “decrease of MIC of kanamycin” value stood at 93.75% and the “decrease of MIC of rifampicin” value is reported as 75%. In the test with N. subflava, the “effect on MIC of ampicillin” value is on record as “did not affect”, the “effect on MIC of rifampicin” value was “did not affect”, the “reduction of MIC of gentamicin” value was “about 50%” and the “reduction of MIC of kanamycin” value was “about 50%”. Besides, in the test on S. aureus, the “reduction of MIC of ampicillin” value was found to be 50%, the “reduction of MIC of gentamicin” value is on record as 50% and the “reduction of MIC of kanamycin” value was determined as 50%. Besides, in the test on M. smegmatis, the “enhancement of susceptibility to gentamicin” value was determined as 50%, the “enhancement of susceptibility to kanamycin” value was 25% and the “enhancement of susceptibility to trimethoprim” value is recorded as 50%. The “effect on bacterial growth rate” value in the test with B. cereus [2] is “did not affect the bacterial growth rate”. Further, in test [3] (50 μM DSF + gentamicin 2 nM), the “effect on susceptibility to gentamicin” value is on record as “enhanced the susceptibility”. Further, the “delay of bacterial growth” value in test [3] (50 μM DSF + gentamicin 2 nM vs gentamicin alone) amounted to 6 h. Moreover, the “effect on susceptibility to kanamycin” value in test [3] (50 μM DSF + kanamycin 0.2 μM) is given as “enhanced the susceptibility”. The “delay of bacterial growth” value in test [3] (50 μM DSF + kanamycin 0.2 μM vs kanamycin alone) is 8 h. In addition, the “effect on growth rate” value in test [3] (50 μM DSF, no antibiotic) was “did not affect the growth rate”.

Take `NC[C@H]1O[C@H](O[C@H]2[C@H](O)[C@@H](O[C@H]3O[C@H](CO)[C@@H](O)[C@H](N)[C@H]3O)[C@H](N)C[C@@H]2N)[C@H](O)[C@@H](O)[C@@H]1O` [Kanamycin, kanamycin, reference compound]: the “time of recovery of bacterial growth” value in test [3] (kanamycin 0.2 μM alone) is given as 22 hour post inoculation.

Regarding gentamicin [reference compound], the results for the “MIC of Gentamicin, Mean” value in the test with B. cereus [1] and with B. cereus [1] (listed as gentamicin) were 8 µg/mL and 8.0 µg/mL, respectively. Also, in test [3] (gentamicin 2 nM alone), the “time of recovery of bacterial growth” value came out at 10 hour post inoculation.

(Values after patent US20140228312A1, “ANTIBIOTIC COMPOSITION AND ITS USES” (Agency for Science, Technology and Research, priority 2011, published 2014).)
